This is an account of results in patent US7501442B2, “Biphenyl compounds useful as muscarinic receptor antagonists” (Theravance, Inc., priority 2004, dated 2009).

One experiment deals with T1, hM2 receptor (Homo sapiens, UniProt P08172).
T1 construct: expressed in transfected cells; host or cells: CHO-K1 cells
T1 sequence (P08172 1-466): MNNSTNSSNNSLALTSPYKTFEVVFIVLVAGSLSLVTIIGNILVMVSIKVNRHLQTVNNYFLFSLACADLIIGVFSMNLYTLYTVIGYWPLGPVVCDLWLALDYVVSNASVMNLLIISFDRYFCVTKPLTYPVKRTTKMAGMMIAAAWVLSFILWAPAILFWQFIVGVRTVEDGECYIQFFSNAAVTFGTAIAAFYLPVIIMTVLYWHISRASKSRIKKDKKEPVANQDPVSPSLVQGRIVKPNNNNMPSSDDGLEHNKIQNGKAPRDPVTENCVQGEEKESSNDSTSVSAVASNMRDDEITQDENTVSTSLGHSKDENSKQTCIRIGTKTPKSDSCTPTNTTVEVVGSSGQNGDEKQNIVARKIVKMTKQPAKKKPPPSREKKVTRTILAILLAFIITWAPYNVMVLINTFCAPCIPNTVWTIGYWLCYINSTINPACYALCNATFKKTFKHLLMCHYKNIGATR
In words: Blockade of agonist-mediated inhibition of cAMP accumulation. The note with it: CHO-K1 cells expressing the hM2 receptor; read-out: Ki value for blockade of oxotremorine-inhibition of forskolin-mediated cAMP accumulation. The experiment is classed as cell-based. The protocol:
A. Blockade of Agonist-Mediated Inhibition of cAMP Accumulation
In this assay, the functional potency of a test compound was determined by measuring the ability of the test compound to block oxotremorine-inhibition of forskolin-mediated cAMP accumulation in CHO-K1 cells expressing the hM2 receptor.
cAMP assays were performed in a radioimmunoassay format using the Flashplate Adenylyl Cyclase Activation Assay System with ^125I-cAMP (NEN SMP004B, PerkinElmer Life Sciences Inc., Boston, Mass.), according to the manufacturer's instructions.
Cells were rinsed once with dPBS and lifted with Trypsin-EDTA solution (0.05% trypsin/0.53 mM EDTA) as described in the Cell Culture and Membrane Preparation section above. […] The cell pellet was then re-suspended in 10 mL dPBS, and the cells were counted with a Coulter Z1 Dual Particle Counter (Beckman Coulter, Fullerton, Calif.). […]
Reactions were incubated for 10 minutes at 37° C. and stopped by addition of 100 μL ice-cold detection buffer. Plates were sealed, incubated overnight at room temperature and counted the next morning on a PerkinElmer TopCount liquid scintillation counter (PerkinElmer Inc., Wellesley, Mass.). The amount of cAMP produced (pmol/well) was calculated based on the counts observed for the samples and cAMP standards, as described in the manufacturer's user manual. […]

The subject of experiment [1] is ACh-induced bronchoconstriction. The experiment can be described thus: Duration of bronchoprotection in guinea pig model of acetylcholine-induced bronchoconstriction. As to conditions: inhalation, 1.5 hours post-dose. The experiment is classed as in vivo. The protocol:
Determination of Duration of Bronchoprotection in Guinea Pig Model of Acetylcholine-Induced Bronchoconstriction
Groups of six male guinea pigs (Duncan-Hartley (HsdPoc:DH) Harlan, Madison, Wis.) weighing between 250 and 350 g were individually identified by cage cards. Throughout the study animals were allowed access to food and water ad libitum.
Test compounds were administered via inhalation over 10 minutes in a whole-body exposure dosing chamber (R&S Molds, San Carlos, Calif.). The dosing chambers were arranged so that an aerosol was simultaneously delivered to 6 individual chambers from a central manifold. Guinea pigs were exposed to an aerosol of a test compound or vehicle (WFI). […] This was measured gravimetrically by comparing pre- and post-nebulization weights of the filled nebulizer.
The bronchoprotective effects of test compounds administered via inhalation were evaluated using whole body plethysmography at 1.5, 24, 48 and 72 hours post-dose.
Forty-five minutes prior to the start of the pulmonary evaluation, each guinea pig was anesthetized with an intramuscular injection of ketamine (43.75 mg/kg), xylazine (3.50 mg/kg) and acepromazine (1.05 mg/kg). […] The depth of anesthesia was monitored and adjusted if the animal responded to pinching of its paw or if the respiration rate was greater than 100 breaths/minute. […]

Regarding `CN(CCN1CCC(OC(=O)Nc2ccccc2-c2ccccc2)CC1)C(=O)CCCCCNCCc1ccc(O)cc1` [Example 1, Biphenyl-2-ylcarbamic Acid 1-[2-({6-[2-(4-Hydroxyphenyl)ethylamino]hexanoyl}methylamino)ethyl]piperidin-4-yl Ester], the Ki at hM2 receptor was less than 10 nM. In addition, in experiment [1], the “PD2(50) for ACh-induced bronchoconstriction” value is recorded as “less than 200 μg/mL”.
